Assay: Time-dependent IVM partitioning into the CHO cell membrane (removal from aqueous phase, absorbance at 245 nm)
Format: physicochemical, Chinese hamster
Settings: 4 μM IVM, 140,000 CHO cells in 1 ml
Procedure: Figure 7 Recovery of ACh-evoked currents in the absence or presence of IVM. […] (B) Representative currents for the same experiment as in A, but with IVM (0.5 μM) added after peak IP1. Currents in A and B were measured at −60 mV. […] Red bars correspond to ACh-elicited currents where IVM was added as in panel B (N = 5). Error bars correspond to SEM. Asterisks correspond to unpaired, two-tailed Student’s t-tests with 0.001 < *P < 0.05, 0.0001 < **P < 0.001 and ***P < 0.0001. (D) Fractional removal of IVM from the aqueous phase of a 1-ml solutions containing 140,000 CHO cells and 4 μM IVM. Removal of IVM was determined following the indicated incubation times by measuring the absorbance of supernatants at 245 nm wavelength (e.g., Supplementary Fig. S3; Supplementary Materials and Methods). Note that, no IVM removal is indicated at the top of the y-axis. […]
To assess the IVM partitioning into the CHO cell plasma membrane during a short time period, we followed the procedure of Silberberg et al.[58] with a few modifications accounting for our experimental conditions. To this end, we incubated 140,000 CHO cells (correspond to 3.2 μM plasma membrane lipids[121]) with 4 μM IVM for either 0, 15 or 300 seconds, pelleted the cells by a brief centrifugation (30 seconds), and analyzed the extent of IVM removal from the aqueous solution (elaborated in the Supplementary Materials and Methods). […]

## CC[C@H](C)[C@H]1O[C@]2(CC[C@@H]1C)C[C@@H]1C[C@@H](C/C=C(\C)[C@@H](O[C@H]3C[C@H](OC)[C@@H](O[C@H]4C[C@H](OC)[C@@H](O)[C@H](C)O4)[C@H](C)O3)[C@@H](C)/C=C/C=C3\CO[C@@H]4[C@H](O)C(C)=C[C@@H](C(=O)O1)[C@]34O)O2 [IVM, Ivermectin]
15 seconds of incubation
  IVM removed from the aqueous solution by the CHO cells: no statistically significant amount
5 minutes of incubation
  IVM removed from the aqueous solution by the CHO cells: ~24%

Reference: paper PMC5317004 (Scientific Reports, 2017)
